# Tested on: CAL51 cell proliferation
# Assay: Cell Titer Glo Proliferation Assay (CAL51)
# Type: cell-based, human
# Conditions: CAL51 cell proliferation, 72 h, Cell Titer Glo luminescence; read-out: Act. Level
# Procedure, shortened: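 Viability is measured by CellTiter-Glo luminescence after 72 h of compound exposure. CAL51 cells were seeded in growth medium with 10% FBS and 2 mM glutamine, cultured overnight, then dosed with compound dilutions, vehicle held at 0.2% DMSO.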
row,Structure (SMILES),IC50 [nM]
1,"COc1cc(C(=O)NC2CCCOC2)ccc1Nc1nc(OC2CCCC2)c2c(-c3ccc4nc(C)oc4c3)c[nH]c2n1 (stereo not shown) [Example 274, 4-(4-(cyclopentyloxy)-5-(2-methylbenzo[d]oxazol-6-yl)-7H-pyrrolo[2,3-d]pyrimidin-2-ylamino)-3-methoxy-N-(tetrahydro-2H-pyran-3-yl) benzamide]",< 100

# Same assay, conditions: Homo sapiens, CAL-51; CAL51 cell proliferation, 72 h, Cell Titer Glo luminescence; read-out: Act. Level
row,Structure (SMILES),IC50 [nM]
1,"COc1cc(C(=O)N2CC2)ccc1Nc1nc(OC2CCCC2)c2c(-c3ccc4nc(C)oc4c3)c[nH]c2n1 [Example 262, aziridin-1-yl(4-(4-(cyclopentyl-oxy)-5-(2-methylbenzo[d]oxazol-6-yl)-7H-pyrrolo[2,3-d]pyrimidin-2-ylamino)-3-methoxyphenyl) methanone]",100 to 400
2,"COc1cc(C(=O)N(C)CC#N)ccc1Nc1nc(OC2CCCC2)c2c(-c3ccc4nc(C)oc4c3)c[nH]c2n1 [Example 263, N-(cyanomethyl)-4-(4-(cyclo-pentyloxy)-5-(2-methylbenzo[d]oxazol-6-yl)-7H-pyrrolo[2,3-d]pyrimidin-2-ylamino)-3-methoxy-N-methylbenzamide]",< 100
3,"COc1cc(C(=O)N[C@H]2CCC[C@H]2O)ccc1Nc1nc(OC2CCCC2)c2c(-c3ccc4nc(C)oc4c3)c[nH]c2n1 [Example 264, 4-(4-(cyclopentyloxy)-5-(2-methylbenzo[d]oxazol-6-yl)-7H-pyrrolo[2,3-d]pyrimidin-2-ylamino)-N-((1S,2R)-2-hydroxycyclopentyl)-3-methoxy-benzamide]",100 to 400
4,"COc1cc(C(=O)N[C@H]2CCC[C@@H]2O)ccc1Nc1nc(OC2CCCC2)c2c(-c3ccc4nc(C)oc4c3)c[nH]c2n1 [Example 265, 4-(4-(cyclopentyloxy)-5-(2-methylbenzo[d]oxazol-6-yl)-7H-pyrrolo[2,3-d]pyrimidin-2-ylamino)-N-((1S,2S)-2-hydroxy-cyclopentyl)-3-methoxybenzamide]",100 to 400
5,"COc1cc(C(=O)N[C@@H]2CCC[C@H]2O)ccc1Nc1nc(OC2CCCC2)c2c(-c3ccc4nc(C)oc4c3)c[nH]c2n1 [Example 266, 4-(4-(cyclopentyloxy)-5-(2-methylbenzo[d]oxazol-6-yl)-7H-pyrrolo[2,3-d]pyrimidin-2-ylamino)-N-((1R,2R)-2-hydroxycyclopentyl)-3-methoxybenzamide]",100 to 400
6,"COc1cc(C(=O)N[C@H]2CCOC2)ccc1Nc1nc(OC2CCCC2)c2c(-c3ccc4nc(C)oc4c3)c[nH]c2n1 [Example 267, (S)-4-(4-(cyclopentyloxy)-5-(2-methylbenzo[d]oxazol-6-yl)-7H-pyrrolo[2,3-d]pyrimidin-2-ylamino)-3-methoxy-N-(tetrahydrofuran-3-yl)benzamide]",100 to 400
7,"COc1cc(C(=O)N(C)CC(N)=O)ccc1Nc1nc(OC2CCCC2)c2c(-c3ccc4nc(C)oc4c3)c[nH]c2n1 [Example 268, N-(2-amino-2-oxoethyl)-4-(4-(cyclopentyloxy)-5-(2-methylbenzo[d]oxazol-6-yl)-7H-pyrrolo[2,3-d]pyrimidin-2-ylamino)-3-methoxy-N-methylbenzamide]",< 100
8,"CNC(=O)c1ccc(Nc2nc(OC3CCOCC3)c3c(-c4ccnnc4)c[nH]c3n2)c(OC)c1 [Example 269, 3-methoxy-N-methyl-4-(5-(pyridazin-4-yl)-4-(tetrahydro-2H-pyran-4-yloxy)-7H-pyrrolo[2,3-d]pyrimidin-2-ylamino)benzamide]",400 to 1000
9,"CNC(=O)c1ccc(Nc2nc(OC3CCOCC3)c3c(-c4ccncn4)c[nH]c3n2)c(OC)c1 [Example 270, 3-methoxy-N-methyl-4-(5-(pyrimidin-4-yl)-4-(tetrahydro-2H-pyran-4-yloxy)-7H-pyrrolo[2,3-d]pyrimidin-2-ylamino)benzamide]",100 to 400
10,"COc1cc(C(=O)N(C)CC2(C)COC2)ccc1Nc1nc(OC2CCCC2)c2c(-c3ccc4nc(C)oc4c3)c[nH]c2n1 [Example 271, 4-(4-(cyclopentyloxy)-5-(2-methylbenzo[d]oxazol-6-yl)-7H-pyrrolo[2,3-d]pyrimidin-2-ylamino)-3-methoxy-N-methyl-N-((3-methyloxetan-3-yl)methyl)benzamide]",< 100
11,"COc1cc(C(=O)N(C)C2COC2)ccc1Nc1nc(OC2CCCC2)c2c(-c3ccc4nc(C)oc4c3)c[nH]c2n1 [Example 272, 4-(4-(cyclopentyloxy)-5-(2-methylbenzo[d]oxazol-6-yl)-7H-pyrrolo[2,3-d]pyrimidin-2-ylamino)-3-methoxy-N-methyl-N-(oxetan-3-yl)benzamide]",< 100
12,"COc1cc(C(=O)NC2CCCOC2)ccc1Nc1nc(OC2CCCC2)c2c(-c3ccc4nc(C)oc4c3)c[nH]c2n1 (stereo not shown) [Example 273, 4-(4-(cyclopentyloxy)-5-(2-methylbenzo[d]oxazol-6-yl)-7H-pyrrolo[2,3-d]pyrimidin-2-yl-amino)-3-methoxy-N-(tetrahydro-2H-pyran-3-yl)benzamide]",< 100
13,"COc1cc(C(=O)N2CCC(OC)CC2)ccc1Nc1nc(OC2CCCC2)c2c(-c3ccc4nc(C)oc4c3)c[nH]c2n1 [Example 275, (4-(4-(cyclopentyloxy)-5-(2-methylbenzo[d]oxazol-6-yl)-7H-pyrrolo[2,3-d]pyrimidin-2-ylamino)-3-methoxyphenyl)(4-methoxypiperidin-1-yl)methanone]",< 100
14,"CC[C@H](C)Oc1nc(Nc2ccc(C(=O)NC)cc2OC)nc2[nH]cc(-c3cnn(C)c3)c12 [Example 276, (S)-4-(4-sec-butoxy-5-(1-methyl-1H-pyrazol-4-yl)-7H-pyrrolo[2,3-d]pyrimidin-2-ylamino)-3-methoxy-N-methylbenzamide]",< 100
15,"COc1cc(C#N)ccc1Nc1nc(OC2CCCC2)c2c(-c3ccc4nc(C)oc4c3)c[nH]c2n1 [Example 277, 4-(4-(cyclopentyloxy)-5-(2-methylbenzo[d]oxazol-6-yl)-7H-pyrrolo[2,3-d]pyrimidin-2-ylamino)-3-methoxybenzonitrile]",100 to 400
16,"CNC(=O)c1ccc(Nc2nc(OC3CCCC3)c3c(-c4ccc5cnn(C)c5c4)c[nH]c3n2)c(OC)c1 [Example 278, 4-(4-(cyclopentyloxy)-5-(1-methyl-1H-indazol-6-yl)-7H-pyrrolo[2,3-d]pyrimidin-2-ylamino)-3-methoxy-N-methylbenzamide]",400 to 1000
17,"CNC(=O)c1ccc(Nc2nc(OC3CCCC3)c3c(-c4ccc5c(C)noc5c4)c[nH]c3n2)c(OC)c1 [Example 279, 4-(4-(cyclopentyloxy)-5-(3-methylbenzo[d]isoxazol-6-yl)-7H-pyrrolo[2,3-d]pyrimidin-2-ylamino)-3-methoxy-N-methylbenzamide]",< 100
18,"CNC(=O)c1cc(OC)c(Nc2nc(OC3CCCC3)c3c(-c4ccc5nc(C)oc5c4)c[nH]c3n2)cn1 [Example 280, 5-(4-(cyclopentyloxy)-5-(2-methylbenzo[d]oxazol-6-yl)-7H-pyrrolo[2,3-d]pyrimidin-2-ylamino)-4-methoxy-N-methylpicolinamide]",< 100
19,"COc1cc(C(=O)NCC2COCCO2)ccc1Nc1nc(OC2CCCC2)c2c(-c3ccc4nc(C)oc4c3)c[nH]c2n1 (stereo not shown) [Example 281, N-((1,4-dioxan-2-yl)methyl)-4-(4-(cyclopentyloxy)-5-(2-methylbenzo[d]oxazol-6-yl)-7H-pyrrolo[2,3-d]pyrimidin-2-ylamino)-3-methoxybenzamide]",100 to 400
20,"COc1cc(C(=O)NCC2COC2)ccc1Nc1nc(OC2CCCC2)c2c(-c3ccc4nc(C)oc4c3)c[nH]c2n1 [Example 282, 4-(4-(cyclopentyloxy)-5-(2-methylbenzo[d]oxazol-6-yl)-7H-pyrrolo[2,3-d]pyrimidin-2-ylamino)-3-methoxy-N-(oxetan-3-ylmethyl)benzamide]",100 to 400
21,COc1cc(C(=O)N(C)CCCO)ccc1Nc1nc(OC2CCCC2)c2c(-c3ccc4nc(C)oc4c3)c[nH]c2n1 [Example 283],< 100
22,"COCCN(C)C(=O)c1ccc(Nc2nc(OC3CCCC3)c3c(-c4ccc5nc(C)oc5c4)c[nH]c3n2)c(OC)c1 [Example 284, 4-(4-(cyclopentyloxy)-5-(2-methylbenzo[d]oxazol-6-yl)-7H-pyrrolo[2,3-d]pyrimidin-2-ylamino)-3-methoxy-N-(2-methoxyethyl)-N-methylbenzamide]",< 100
23,"COc1cc(C(=O)NCC(C)(C)O)ccc1Nc1nc(OC2CCCC2)c2c(-c3ccc4nc(C)oc4c3)c[nH]c2n1 [Example 285, 4-(4-(cyclopentyloxy)-5-(2-methylbenzo[d]oxazol-6-yl)-7H-pyrrolo[2,3-d]pyrimidin-2-ylamino)-N-(2-hydroxy-2-methylpropyl)-3-methoxybenzamide]",100 to 400
24,"CC[C@H](C)Oc1nc(Nc2ccc(C(=O)NCCO)cc2OC)nc2[nH]cc(-c3cnn(C)c3)c12 [Example 286, (S)-4-(4-sec-butoxy-5-(1-methyl-1H-pyrazol-4-yl)-7H-pyrrolo [2,3-d]pyrimidin-2-ylamino)-N-(2-hydroxyethyl)-3-methoxybenzamide]",100 to 400
25,"COc1cc(C(=N)N)ccc1Nc1nc(OC2CCCC2)c2c(-c3ccc4nc(C)oc4c3)c[nH]c2n1 [Example 287, 4-(4-(cyclopentyloxy)-5-(2-methylbenzo[d]oxazol-6-yl)-7H-pyrrolo[2,3-d]pyrimidin-2-ylamino)-3-methoxybenzimidamide]",1000 to 10000
26,"CNC(=O)c1ccc(Nc2nc(OC3CCOCC3)c3c(-c4ccnc(C(=O)NC)c4)c[nH]c3n2)c(OC)c1 [Example 288, 4-(2-(2-methoxy-4-(methylcarbamoyl)phenylamino)-4-(tetrahydro-2H-pyran-4-yloxy)-7H-pyrrolo[2,3-d]pyrimidin-5-yl)-N-methylpicolinamide]",100 to 400
27,"COc1cc(C(=O)N2CCC(F)(F)CC2)ccc1Nc1nc(OC2CCCC2)c2c(-c3ccc4nc(C)oc4c3)c[nH]c2n1 [Example 289, (4-(4-(cyclopentyloxy)-5-(2-methylbenzo[d]oxazol-6-yl)-7H-pyrrolo[2,3-d]pyrimidin-2-ylamino)-3-methoxyphenyl)(4,4-difluoropiperidin-1-yl)methanone]",100 to 400

# Source: US9346812B2, “Substituted pyrrolopyrimidine compounds, compositions thereof, and methods of treatment therewith” (Signal Pharmaceutical LLC, priority 2013, dated 2016)
